Data: patent publication US20050181117A1, “Stent coating method” (Medtronic Vascular, Inc., priority 2003, published 2005)

Experiment: percent drug eluted over time from coated stent
Assay type: physicochemical
Details: base coat podophyllotoxin, Cyclops-12, in THF; Cyclops-9 cap coat with THF as cap coat solvent (FIG. 6) vs acetone (FIG. 5)
Description: The cap coating examples may be compatible with a variety of base coats of the present invention. In one embodiment, the cap coat provided by example 9 (e.g., Cyclops-9 in acetone) may be used with a base coat provided by example 6 (e.g., Resten-NG, PVPP, in methanol-water mix). The use of a cap coat may influence the release profile of the therapeutic agent, or drug. […] The stent is base coated with a Resten-NG, PVPP in methanol/water mixed solvent and (optionally) cap coated with a Cyclops-9 in acetone mixture.
In another embodiment, the cap coat provided by example 9 (e.g., Cyclops-9 in acetone or THF) may be used with a base coat provided by example 8 (e.g., podophyllotoxin, Cyclops-12, in THF). Depending on the solvent chosen for the cap coat (e.g., acetone or THF), a different drug release profile may be obtained. […] Thus, the drug release profile may be altered by using a different cap coat solvent.

## COc1cc([C@@H]2c3cc4c(cc3[C@H](O)[C@H]3COC(=O)[C@H]23)OCO4)cc(OC)c1OC [podophyllotoxin]
  elution rate (percent drug eluted over time): marked increase in elution rate
